From ChEMBL document CHEMBL2384902, “Synthesis and ionophoric activities of functionalized bis(choloyl) conjugates with a rigid core” (Bioorg Med Chem Lett, 2013)

Legend:
[1] = Ionophoric activity across egg-yolk L-alpha-phosphatidylcholine-based liposomal membranes (unknown origin) assessed as induction of pH discharge at internal pH 7 and external aqueous phase pH 8 by pyranine dye-based method; assay type: physicochemical; settings: artificial membrane
[2] = Ionophoric activity across egg-yolk L-alpha-phosphatidylcholine-based liposomal membranes (unknown origin) assessed as change in fluorescence intensity at 3 mol % by pyranine dye-based method in presence of chloride ions in internal and sulfate ions in external vesicles; assay type: physicochemical; settings: artificial membrane
[3] = Ionophoric activity across egg-yolk L-alpha-phosphatidylcholine-based liposomal membranes (unknown origin) assessed as induction of pH discharge at 0.5 to 3 mol % at internal pH 7 and external aqueous phase pH 8 by pyranine dye-based method; assay type: physicochemical; settings: artificial membrane
[4] = Ratio of k2 to K for ionophoric activity across egg-yolk L-alpha-phosphatidylcholine-based liposomal membranes (unknown origin)

Row | SMILES | K [1] [×10⁻² /min] | Activity [2] | Activity [3] | Ratio (10'-4/min.mol%'-4) [4] | Ratio (10'-5/min.mol%'-4) [4]
1 | C[C@H](CCC(=O)NC(CCCCN)C(=O)NCc1ccc(CNC(=O)C(CCCCN)NC(=O)CC[C@@H](C)[C@H]2CC[C@H]3[C@@H]4[C@H](O)C[C@@H]5C[C@H](O)CC[C@]5(C)[C@H]4C[C@H](O)[C@]23C)cc1)[C@H]1CC[C@H]2[C@@H]3[C@H](O)C[C@@H]4C[C@H](O)CC[C@]4(C)[C@H]3C[C@H](O)[C@]12C (some centres not stated) | 1.81 | Not Active | Active | 5.2 | 
2 | C[C@H](CCC(=O)NCc1ccc(CNC(=O)CC[C@@H](C)[C@H]2CC[C@H]3[C@@H]4[C@H](O)C[C@@H]5C[C@H](O)CC[C@]5(C)[C@H]4C[C@H](O)[C@]23C)cc1)[C@H]1CC[C@H]2[C@@H]3[C@H](O)C[C@@H]4C[C@H](O)CC[C@]4(C)[C@H]3C[C@H](O)[C@]12C |  |  | Active |  | 9
3 | CC(=O)NCCCCC(NC(=O)CC[C@@H](C)[C@H]1CC[C@H]2[C@@H]3[C@H](O)C[C@@H]4C[C@H](O)CC[C@]4(C)[C@H]3C[C@H](O)[C@]12C)C(=O)NCc1ccc(CNC(=O)C(CCCCNC(C)=O)NC(=O)CC[C@@H](C)[C@H]2CC[C@H]3[C@@H]4[C@H](O)C[C@@H]5C[C@H](O)CC[C@]5(C)[C@H]4C[C@H](O)[C@]23C)cc1 (some centres not stated) |  | Not Active | Active |  | 
4 | C[C@H](CCC(=O)NC(CCCCN)C(=O)Nc1ccc(NC(=O)C(CCCCN)NC(=O)CC[C@@H](C)[C@H]2CC[C@H]3[C@@H]4[C@H](O)C[C@@H]5C[C@H](O)CC[C@]5(C)[C@H]4C[C@H](O)[C@]23C)cc1)[C@H]1CC[C@H]2[C@@H]3[C@H](O)C[C@@H]4C[C@H](O)CC[C@]4(C)[C@H]3C[C@H](O)[C@]12C (some centres not stated) | 1.81 | Not Active | Active | 5.5 | 
